Data: ChEMBL document CHEMBL3885881, “DrugMatrix”

Species on record: Rattus norvegicus
Experiment: DrugMatrix - Regimen: Daily Repeat
Format: toxicity, organism-based, Sprague-Dawley
Set-up: regimen Daily Repeat, gender Male, age 6-8 weeks
Conditions: in vivo, sc, route subcutaneous, […]; for ABSOLUTE BASOPHIL / ABSOLUTE EOSINOPHIL / ABSOLUTE LYMPHOCYTE / ABSOLUTE MONOCYTE / ABSOLUTE SEGMENTED NEUTROPHIL / BASOPHIL / EOSINOPHIL / ERYTHROCYTE COUNT / HEMATOCRIT / HEMOGLOBIN / LEUKOCYTE COUNT / LYMPHOCYTE / MEAN CORPUSCULAR HEMOGLOBIN / MEAN CORPUSCULAR HEMOGLOBIN CONCENTRATION / MEAN CORPUSCULAR VOLUME / MONOCYTE / NEUTROPHIL / NUCLEATED RED BLOOD CELLS / PLATELET COUNT: tissue Blood; for ALANINE AMINOTRANSFERASE / ALBUMIN / ALKALINE PHOSPHATASE / ASPARTATE AMINOTRANSFERASE / BLOOD UREA NITROGEN / CARBON DIOXIDE / CHLORIDE / CHOLESTEROL / CREATINE PHOSPHOKINASE / CREATININE / GLUCOSE / LACTATE DEHYDROGENASE / LIPASE / PHOSPHORUS / POTASSIUM / SODIUM / TOTAL BILIRUBIN / TOTAL PROTEIN / URIC ACID: tissue Plasma
[1] = 29 mg/kg, 120 h, dose level Low, time 5 day
[2] = 1200 mg/kg, 72 h, dose level High, time 3 day
[3] = 1200 mg/kg, 120 h, dose level High, time 5 day

Nc1nc2c(ncn2CCC(CO)CO)c(=O)[nH]1 [PENCICLOVIR] was tested, and the “ABSOLUTE BASOPHIL” value [1] was 0 CELLS/uL, the “ABSOLUTE EOSINOPHIL” value [1] was 0 CELLS/uL and the “ABSOLUTE LYMPHOCYTE” value [1] was 9185.33 CELLS/uL. For the same compound, the “ABSOLUTE MONOCYTE” value [1] was 38 CELLS/uL, the “ABSOLUTE SEGMENTED NEUTROPHIL” value [1] was 2710 CELLS/uL and the BASOPHIL [1] was 0%. The EOSINOPHIL [1] was 0%, the “ERYTHROCYTE COUNT” value [1] was 5.6 x10E6/uL and the HEMATOCRIT [1] was 35.77%. The HEMOGLOBIN [1] was 13.33 G/DL, the “LEUKOCYTE COUNT” value [1] was 11.93 x10E3/uL and the LYMPHOCYTE [1] was 77%. The “MEAN CORPUSCULAR HEMOGLOBIN” value [1] was 23.83 pg, the “MEAN CORPUSCULAR HEMOGLOBIN CONCENTRATION” value [1] was 37.27 G/DL and the “MEAN CORPUSCULAR VOLUME” value [1] was 63.8 fL. The MONOCYTE [1] was 0.33%, the NEUTROPHIL [1] was 22.67% and the “NUCLEATED RED BLOOD CELLS” value [1] was 0 /100WBC. For the same compound, the “PLATELET COUNT” value [1] was 979 x10E3/uL, the “ALANINE AMINOTRANSFERASE” value [1] was 64 u/L and the ALBUMIN [1] was 3.9 G/DL. For the same compound, the “ALKALINE PHOSPHATASE” value [1] was 325.67 u/L, the “ASPARTATE AMINOTRANSFERASE” value [1] was 95 u/L and the “BLOOD UREA NITROGEN” value [1] was 19 mg/dL. The “CARBON DIOXIDE” value [1] was 24.67 mmol/L, the CHLORIDE [1] was 105.33 MEQ/L and the CHOLESTEROL [1] was 96.67 mg/dL. For the same compound, the “CREATINE PHOSPHOKINASE” value [1] was 520.33 u/L, the CREATININE [1] was 0.18 mg/dL and the GLUCOSE [1] was 168.33 mg/dL. For the same compound, the “LACTATE DEHYDROGENASE” value [1] was 141.67 u/L, the LIPASE [1] was 8 u/L and the PHOSPHORUS [1] was 14.77 mg/dL. The POTASSIUM [1] was 6.25 MEQ/L, the SODIUM [1] was 144.77 MEQ/L and the “TOTAL BILIRUBIN” value [1] was 0.17 mg/dL. For the same compound, the “TOTAL PROTEIN” value [1] was 5.7 G/DL, the “URIC ACID” value [1] was 1.5 mg/dL and the “ABSOLUTE BASOPHIL” value [2] was 0 CELLS/uL. The “ABSOLUTE EOSINOPHIL” value [2] was 107.33 CELLS/uL, the “ABSOLUTE LYMPHOCYTE” value [2] was 7265 CELLS/uL and the “ABSOLUTE MONOCYTE” value [2] was 87 CELLS/uL. For the same compound, the “ABSOLUTE SEGMENTED NEUTROPHIL” value [2] was 974 CELLS/uL, the BASOPHIL [2] was 0% and the EOSINOPHIL [2] was 1.33%. The “ERYTHROCYTE COUNT” value [2] was 4.97 x10E6/uL, the HEMATOCRIT [2] was 30.73% and the HEMOGLOBIN [2] was 11.67 G/DL. For the same compound, the “LEUKOCYTE COUNT” value [2] was 8.43 x10E3/uL, the LYMPHOCYTE [2] was 86.33% and the “MEAN CORPUSCULAR HEMOGLOBIN” value [2] was 23.43 pg. The “MEAN CORPUSCULAR HEMOGLOBIN CONCENTRATION” value [2] was 37.97 G/DL, the “MEAN CORPUSCULAR VOLUME” value [2] was 61.77 fL and the MONOCYTE [2] was 1%. For the same compound, the NEUTROPHIL [2] was 11.33%, the “NUCLEATED RED BLOOD CELLS” value [2] was 0.33 /100WBC and the “PLATELET COUNT” value [2] was 1398.33 x10E3/uL. For the same compound, the “ALANINE AMINOTRANSFERASE” value [2] was 36 u/L, the ALBUMIN [2] was 3.13 G/DL and the “ALKALINE PHOSPHATASE” value [2] was 311.67 u/L. The “ASPARTATE AMINOTRANSFERASE” value [2] was 64.33 u/L, the “BLOOD UREA NITROGEN” value [2] was 12.33 mg/dL and the “CARBON DIOXIDE” value [2] was 28 mmol/L. The CHLORIDE [2] was 105.5 MEQ/L, the CHOLESTEROL [2] was 58.33 mg/dL and the “CREATINE PHOSPHOKINASE” value [2] was 201.33 u/L. The CREATININE [2] was 0.19 mg/dL, the GLUCOSE [2] was 132.67 mg/dL and the “LACTATE DEHYDROGENASE” value [2] was 105.67 u/L. The LIPASE [2] was 6.5 u/L, the PHOSPHORUS [2] was 10.63 mg/dL and the POTASSIUM [2] was 5.8 MEQ/L. The SODIUM [2] was 147.5 MEQ/L, the “TOTAL BILIRUBIN” value [2] was 0.0667 mg/dL and the “TOTAL PROTEIN” value [2] was 5.97 G/DL. The “URIC ACID” value [2] was 0.93 mg/dL, the “ABSOLUTE BASOPHIL” value [3] was 0 CELLS/uL and the “ABSOLUTE EOSINOPHIL” value [3] was 219.33 CELLS/uL. The “ABSOLUTE LYMPHOCYTE” value [3] was 14998.67 CELLS/uL, the “ABSOLUTE MONOCYTE” value [3] was 280 CELLS/uL and the “ABSOLUTE SEGMENTED NEUTROPHIL” value [3] was 5502 CELLS/uL. For the same compound, the BASOPHIL [3] was 0%, the EOSINOPHIL [3] was 1% and the “ERYTHROCYTE COUNT” value [3] was 4.92 x10E6/uL. For the same compound, the HEMATOCRIT [3] was 30.6%, the HEMOGLOBIN [3] was 11.77 G/DL and the “LEUKOCYTE COUNT” value [3] was 21 x10E3/uL. For the same compound, the LYMPHOCYTE [3] was 71.33%, the “MEAN CORPUSCULAR HEMOGLOBIN” value [3] was 23.97 pg and the “MEAN CORPUSCULAR HEMOGLOBIN CONCENTRATION” value [3] was 38.47 G/DL. The “MEAN CORPUSCULAR VOLUME” value [3] was 62.2 fL, the MONOCYTE [3] was 1.33% and the NEUTROPHIL [3] was 26.33%. The “NUCLEATED RED BLOOD CELLS” value [3] was 0 /100WBC, the “PLATELET COUNT” value [3] was 2260.33 x10E3/uL and the “ALANINE AMINOTRANSFERASE” value [3] was 31.33 u/L. The ALBUMIN [3] was 2.63 G/DL, the “ALKALINE PHOSPHATASE” value [3] was 297.33 u/L and the “ASPARTATE AMINOTRANSFERASE” value [3] was 73.67 u/L. For the same compound, the “BLOOD UREA NITROGEN” value [3] was 22 mg/dL, the “CARBON DIOXIDE” value [3] was 25.33 mmol/L and the CHLORIDE [3] was 103 MEQ/L. The CHOLESTEROL [3] was 52 mg/dL, the “CREATINE PHOSPHOKINASE” value [3] was 232.33 u/L and the CREATININE [3] was 0.34 mg/dL. The GLUCOSE [3] was 147 mg/dL, the “LACTATE DEHYDROGENASE” value [3] was 216.33 u/L and the LIPASE [3] was 6.67 u/L. For the same compound, the PHOSPHORUS [3] was 12 mg/dL, the POTASSIUM [3] was 6.2 MEQ/L and the SODIUM [3] was 143.07 MEQ/L. For the same compound, the “TOTAL BILIRUBIN” value [3] was 0.1 mg/dL, the “TOTAL PROTEIN” value [3] was 5.73 G/DL and the “URIC ACID” value [3] was 2.3 mg/dL.
